From patent publication US20250034216A1, “STEREOSELECTIVE COVALENT LIGANDS FOR ONCOGENIC AND IMMUNOLOGICAL PROTEINS” (The Scripps Research Institute, priority 2021, published 2025)

System: DDX42
Assay: SEC-MS elution profile
Assay type: cell-based, human
Settings: 22Rv1 cells, 20 μM, 3 h
Protocol: . Cell pellets were lysed by sonication (8 pulses, 40% power) in 600 μL ice-cold PBS supplemented with cOmplete protease inhibitors (1 tablet/10 mL of PBS), ultracentrifuged for 20 min at 100,000 g, then normalized to a standardized concentration (typically 1.5 to 2.5 mg/mL). Clarified lysate was injected into a Superdex 200 Increase 10/300 GL column attached to an AKTA pure FPLC system. Proteins were fractionated using an isocratic gradient (PBS) running at 0.5 mL/min into 5 fractions 2 mL wide, beginning at 8 mL and ending at 18 mL. Eluate was collected into 15 mL tubes containing 12 mL of acetone at 4C. After completion of one set of 5 fractions, the above protocol was repeated a second time for the remaining 5 fractions. Proteins were precipitated overnight at −20 C, then spun at 4500 g for 20 minutes, yielding a white protein pellet. […]
Data processing: Fractional distributions for each peptide-spectra match with a total TMT reporter ion intensity were calculated by dividing the reporter ion intensity for each TMT channel by the summed intensity across the 5 TMT channels corresponding to a single treatment condition (Equation 1). […] Euclidean distances (SE shift scores, Equation 2) were calculated using the average elution profile for each protein across replicates, combined by treatment condition and cell line. […]

SMILES: C=CC(=O)N1[C@H](c2ccc3c(c2)OCO3)c2[nH]c3ccccc3c2C[C@H]1C(=O)N1CCOCC1 [WX-02-23, 1-((1R,3S)-1-(benzo[d][1,3]dioxol-S-yl)-3-(morpholine-4-carbonyl)-1,3,4,9-tetrahydro-2H-pyrido [3,4-b]indol-2-yl)prop-2-en-1-one]
- SEC migration shift of DDX42: stereoselectively caused this same size shift
